Measurements reported in patent publication US20250313535A1, “ALPHA 4 BETA 7 INTEGRIN MODULATORS AND USES THEREOF” (DICE MOLECULES SV, INC., priority 2022, published 2025).

Key:
[1] = biological target: α4β7 integrin (Homo sapiens (Human), UniProt P13612+P26010); test: Integrin Adhesion Assay: Protocol 4 (MAdCAM-coated plate, RPMI-8866 cells with stable LOF mutation of the ITGB1 gene); assay type: cell-based; conditions: RPMI-8866 cells with stable LOF mutation of the ITGB1 gene; read-out: Mean IC50 α4β7 KO^a
Procedure: (§1) Integrin Adhesion Assay Using Genetically Modified Cells Generating Stable Cell Lines with ITGB1 or ITGB7 Knockout (Protocol 4 and Protocol 5)
(§2) To obtain subclones of the RPMI-8866 cell line (Sigma-Aldrich, St. Louis, MO) that were individually deficient in either integrin β1 or integrin β 7, CRISPR/Cas9 technology was employed (PMID: 30108345). Specifically, a Neon™ Transfection System System 10 μL Kit and the Neon™ Transfection device (both from ThermoFisher Scientific) were used.
(§3) The protocol was performed following the manufacturer instructions, described in https://www.thermofisher.com/document-connect/document-connect.html?url=https % 3A%2F%2F assets.thermofisher.com%2FTFS-Assets%2FLSG%2Fmanuals%2FMAN0017066_TrueCut Cas9_Protein_v2_UG.pdf, which is incorporated by reference herein in its entirety.
(§4) RPMI-8866 cells were transferred to a flask the day before transfection, at a confluence of 5×10^5 cells/mL. The cells were washed with PBS and resuspended in buffer R (Neon™ Transfection System, Invitrogen) to 2×10^5 cells/10 uL for each reaction. The TrueCut™ HiFi Cas9 Protein (1250 ng per reaction) was mixed with TrueGuide™ sgRNA (7.5 pmoles each/pool of 3 sequences, table 1) (ThermoFisher Scientific). This mix was combined with the RPMI-8866 cells and electroporated on the Neon system at 1700V/20 ms/1 pulse. Transfected cells were allowed to recover in 500 μL pre-warmed cRMPI media (RPMI-1640 media with 10% FBS, 100 U/ml Penicillin-Streptomycin) at 37° C., 5% CO2 for 24 hours. At that time, an extra 500 μL of pre-warmed cRMPI media was added, and cells were incubated for another 24 hours.
(§5) For flow cytometry analysis, 100 μL of the transfected cells were collected and stained with anti-itga4 (Clone: 9F10, PE, BD Pharmingen™), anti-itgb 1 (Clone: (TS2/16), Super Bright 436, eBioscience), anti-itgb7 (Clone: FIB504, Brilliant Violet 650, BD Pharmingen™) and viability dye (LIVE/DEAD™ Fixable Green Dead Cell Stain, Invitrogen™). An Attune NxT Flow Cytometer was used to analyze the CRISPR-transfected cells. The flow cytometry results were analyzed using FlowJo™ v10.8.1 Software (BD Life Sciences). Fluorescence minus one (FMO) controls were used to select appropriate gates for data analysis.
(§6) To generate an individual clones of cells deficient in either ITGB7 or ITGB1 by limiting dilution assay, the transfected cells were resuspended at 5 cells/mL and seeded in 384 well plates. Outgrowth of clones was monitored using a microscope, and 24 clones were transferred for expansion. Expression of either integrin was verified by flow cytometry in each of the clones. One clone of each integrin b7 or the integrin b1 knockout was chosen, expanded and aliquots were frozen in vapor phase liquid nitrogen.
Integrin Adhesion Assay: Protocol 4
(§7) MAdCAM (R&D Systems, 0.1 ug) was diluted in 50 μL PBS, added to each well of an opaque ELISA plate (Thermo), and incubated overnight at 4° C. Coated plates were washed once with PBS and then blocked with 200 μL of assay buffer (10 mM HEPES, 150 mM NaCl, 1 mM MnCl2, 0.1 mM CaCl2), 1% BSA) for 1 hour at 37° C. and 5% CO2. After incubation, buffer was aspirated from the plates and 50 μL of fresh assay buffer was added. Compounds were added using a compounds dispenser (Tecan), and DMSO concentration was normalized to 1% across each plate. 50 μL of RPMI-8866 cells with a stable loss of function (LOF) mutation of the ITGB1 gene (2×10^6 per mL) were added to each well and the plates were incubated for 1 hour at 37° C. at a CO2 concentration of 5%. After incubation, plates were allowed to cool to RT for 10 minutes before being washed four times in assay buffer by an automated plate washer (BioTek). After washing, 100 μL of a 1:1 mixture of assay buffer and CellTiter GLO 2.0 reagent (Promega) were added to each well. Plates were mixed for 2 minutes at 1000 rpm and then allowed to incubate an additional 10 minutes before reading out luminescence on a Tecan Spark plate reader. […]

[2] = biological target: α4β1 integrin (Homo sapiens (Human), UniProt P05556+P13612); test: Integrin Adhesion Assay: Protocol 5 (VCAM-coated plate, RPMI-8866 cells with stable LOF mutation of the ITGB7 gene); assay type: cell-based; conditions: RPMI-8866 cells with stable LOF mutation of the ITGB7 gene; read-out: Mean IC50 α4β1 KO^b
Procedure: as §1, §2, §3, §4, §5, §6
Integrin Adhesion Assay: Protocol 5
as §7, with “VCAM” for “MAdCAM”, “by” for “using a”, “(Tecan)” for “(Tecan),”, “LOF” for “loss of function (LOF)”, “ITGB7” for “ITGB1”, “and 5% CO2.” for “at a CO2 concentration of 5%.”

α4β7 integrin, sequence (P13612 34-1032): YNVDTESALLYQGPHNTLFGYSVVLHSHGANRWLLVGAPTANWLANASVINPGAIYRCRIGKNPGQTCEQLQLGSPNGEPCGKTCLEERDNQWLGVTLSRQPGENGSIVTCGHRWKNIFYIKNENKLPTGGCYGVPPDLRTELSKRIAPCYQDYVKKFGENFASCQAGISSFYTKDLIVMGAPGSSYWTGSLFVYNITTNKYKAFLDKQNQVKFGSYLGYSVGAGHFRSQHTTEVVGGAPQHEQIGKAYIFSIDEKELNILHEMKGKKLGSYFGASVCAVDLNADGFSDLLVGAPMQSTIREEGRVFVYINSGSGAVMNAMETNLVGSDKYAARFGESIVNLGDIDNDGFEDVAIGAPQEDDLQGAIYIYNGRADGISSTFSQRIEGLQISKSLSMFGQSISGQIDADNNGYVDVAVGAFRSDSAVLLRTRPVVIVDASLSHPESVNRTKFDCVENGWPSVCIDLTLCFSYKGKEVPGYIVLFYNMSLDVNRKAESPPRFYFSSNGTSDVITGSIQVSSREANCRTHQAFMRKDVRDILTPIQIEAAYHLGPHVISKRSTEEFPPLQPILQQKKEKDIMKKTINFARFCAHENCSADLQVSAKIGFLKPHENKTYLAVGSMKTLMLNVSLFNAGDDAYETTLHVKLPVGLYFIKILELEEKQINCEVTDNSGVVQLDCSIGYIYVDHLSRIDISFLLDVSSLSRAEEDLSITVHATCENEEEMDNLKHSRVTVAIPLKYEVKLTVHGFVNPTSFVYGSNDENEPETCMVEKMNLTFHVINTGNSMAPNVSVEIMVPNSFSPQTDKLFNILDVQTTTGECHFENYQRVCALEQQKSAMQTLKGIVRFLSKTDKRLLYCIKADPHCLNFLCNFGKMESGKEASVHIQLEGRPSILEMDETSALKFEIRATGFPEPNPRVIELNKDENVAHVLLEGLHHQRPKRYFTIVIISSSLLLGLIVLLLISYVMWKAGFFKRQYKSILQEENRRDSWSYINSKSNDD
α4β7 integrin, sequence (P26010 20-798): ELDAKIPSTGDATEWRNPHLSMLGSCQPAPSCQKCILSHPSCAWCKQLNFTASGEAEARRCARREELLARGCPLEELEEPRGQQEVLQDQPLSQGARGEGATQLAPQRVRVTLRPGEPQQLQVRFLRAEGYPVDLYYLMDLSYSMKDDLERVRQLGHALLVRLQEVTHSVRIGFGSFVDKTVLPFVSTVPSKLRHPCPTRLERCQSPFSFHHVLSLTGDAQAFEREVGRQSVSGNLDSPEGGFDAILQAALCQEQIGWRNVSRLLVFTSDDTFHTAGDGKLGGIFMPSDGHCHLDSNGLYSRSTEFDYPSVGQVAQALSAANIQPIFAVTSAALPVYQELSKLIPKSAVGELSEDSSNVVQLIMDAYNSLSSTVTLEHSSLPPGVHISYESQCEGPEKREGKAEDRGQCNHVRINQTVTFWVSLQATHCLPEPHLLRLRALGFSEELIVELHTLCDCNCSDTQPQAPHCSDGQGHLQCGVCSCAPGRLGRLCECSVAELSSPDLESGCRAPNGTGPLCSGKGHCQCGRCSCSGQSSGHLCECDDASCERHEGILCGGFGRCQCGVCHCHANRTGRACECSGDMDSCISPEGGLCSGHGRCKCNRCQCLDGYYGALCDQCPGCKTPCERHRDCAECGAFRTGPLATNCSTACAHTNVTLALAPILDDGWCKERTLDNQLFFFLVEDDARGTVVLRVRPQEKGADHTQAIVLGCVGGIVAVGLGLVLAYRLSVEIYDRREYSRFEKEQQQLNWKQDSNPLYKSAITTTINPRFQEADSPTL
α4β1 integrin, sequence (P13612 34-1032): as the sequence (P13612 34-1032) above
α4β1 integrin, sequence (P05556 21-798): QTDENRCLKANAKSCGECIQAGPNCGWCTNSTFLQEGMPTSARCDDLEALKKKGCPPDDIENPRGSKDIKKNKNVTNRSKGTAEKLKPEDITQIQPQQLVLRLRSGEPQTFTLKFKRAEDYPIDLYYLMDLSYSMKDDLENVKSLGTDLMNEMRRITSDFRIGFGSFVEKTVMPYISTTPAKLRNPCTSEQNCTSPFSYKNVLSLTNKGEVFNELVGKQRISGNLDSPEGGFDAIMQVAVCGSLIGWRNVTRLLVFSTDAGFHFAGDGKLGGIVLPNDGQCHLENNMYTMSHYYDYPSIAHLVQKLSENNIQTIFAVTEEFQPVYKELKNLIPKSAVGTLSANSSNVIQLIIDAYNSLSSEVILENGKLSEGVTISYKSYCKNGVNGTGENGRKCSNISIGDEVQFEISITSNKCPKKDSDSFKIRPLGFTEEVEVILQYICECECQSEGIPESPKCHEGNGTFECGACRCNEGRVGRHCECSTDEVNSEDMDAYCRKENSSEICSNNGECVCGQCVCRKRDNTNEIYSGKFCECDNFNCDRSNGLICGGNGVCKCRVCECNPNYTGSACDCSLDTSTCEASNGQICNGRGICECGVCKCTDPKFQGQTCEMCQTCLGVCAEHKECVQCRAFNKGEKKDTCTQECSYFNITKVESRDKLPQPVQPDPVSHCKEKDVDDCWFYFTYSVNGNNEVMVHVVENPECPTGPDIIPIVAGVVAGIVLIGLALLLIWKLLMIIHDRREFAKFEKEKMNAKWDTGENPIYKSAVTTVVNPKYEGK

Row | SMILES | IC50 [1] [µM] | IC50 [2] [µM]
1 | Cn1c(=O)c(-c2cccc3c(C[C@H](NC(=O)C4(C(F)(F)F)CCN([C@H]5CCOC5)CC4)C(=O)O)cccc23)c(C(F)(F)F)c2ccccc21 [Compound 457] | < 0.01 | 0.1 to 1
2 | COc1ccc(CCN(C)C)c(OC)c1-c1cccc2c(C[C@H](NC(=O)C3(C(F)(F)F)CCN(CC(F)(F)F)CC3)C(=O)O)cccc12 [Compound 468] | < 0.01 | 0.1 to 1
3 | CN(C)CCc1cc(-c2cccc3c(C[C@H](NC(=O)C4(C(F)(F)F)CCN(CC(F)(F)F)CC4)C(=O)O)cccc23)c2cnccc2c1 [Compound 469] | 0.01 to 0.1 | 0.1 to 1
4 | COC(=O)[C@H](Cc1cccc2c(-c3nccc4cc(CCN(C)C)ccc34)cccc12)NC(=O)OC(C)(C)C [Compound 471] | < 0.01 | 0.1 to 1
5 | COc1ccc2cccnc2c1-c1cccc2c(C[C@H](NC(=O)C3(C(F)(F)F)CCN(CC(F)(F)F)CC3)C(=O)O)cccc12 [Compound 472] | < 0.01 | > 1
6 | COc1cc2c(c(OC)c1-c1cccc3c(C[C@H](NC(=O)c4c(C)cccc4F)C(=O)O)cccc13)CN(C)CC2 [Compound 473] | < 0.01 | 0.1 to 1
7 | COc1cc2c(c(OC)c1-c1cccc3c(C[C@H](NC(=O)C4(C(F)(F)F)CCN(CC(F)(F)F)CC4)C(=O)O)cccc13)CN(C)CC2 [Compound 474] | < 0.01 | 0.1 to 1
8 | COc1cc2c(c(OC)c1-c1cccc3c(C[C@H](NC(=O)c4c(C)cccc4F)C(=O)O)cccc13)CN(CC(F)(F)F)CC2 [Compound 475] | < 0.01 | 0.1 to 1
9 | CN(C)Cc1ccc2c(C(F)(F)F)c(-c3cccc4c(C[C@H](NC(=O)C5(C(F)(F)F)CCN(CC(F)(F)F)CC5)C(=O)O)cccc34)c(=O)n(C)c2c1 [Compound 476] | < 0.01 | 0.1 to 1
10 | COc1cncc(OC)c1-c1cccc2c(C[C@H](NC(=O)c3c(C)cccc3F)C(=O)O)cccc12 [Compound 477] | < 0.01 | 0.1 to 1
11 | COc1cc(CN(C)C)cc(OC)c1-c1cccc2c(C[C@H](NC(=O)C3(C(F)(F)F)CCN(CC(F)(F)F)CC3)C(=O)O)cccc12 [Compound 478] | < 0.01 | > 1
12 | COc1ccc(CN(C)C)c(OC)c1-c1cccc2c(C[C@H](NC(=O)c3c(F)cccc3C(F)(F)F)C(=O)O)cccc12 [Compound 479] | < 0.01 | 0.1 to 1
13 | Cn1c(=O)c(-c2cccc3c(C[C@H](NC(=O)C4(C)CC5CCC(C4)N5CC(F)(F)F)C(=O)O)cccc23)c(C(F)(F)F)c2ccccc21 (stereo partly drawn) [Compound 481] | 0.01 to 0.1 | 0.1 to 1
14 | O=C(O)[C@H](Cc1cccc2c(-c3nccc4ccc(CCCN5CCCCC5)cc34)cccc12)NC(=O)C1(C(F)(F)F)CCN([C@H]2COCC2(F)F)CC1 [Compound 482] | < 0.01 | 0.1 to 1
15 | O=C(O)[C@H](Cc1cccc2c(-c3nccc4ccc(CCCN5CCCCC5)cc34)cccc12)NC(=O)C1(C(F)(F)F)CCN([C@@H]2COCC2(F)F)CC1 [Compound 483] | < 0.01 | > 1
16 | CC[C@@H](N1CCC(C(=O)N[C@@H](Cc2cccc3c(-c4c(C(F)(F)F)c5ccccc5n(C)c4=O)cccc23)C(=O)O)(C(F)(F)F)CC1)C(F)(F)F [Compound 484] | 0.1 to 1 | > 1
17 | Cn1c(=O)c(-c2cccc3c(C[C@H](NC(=O)C4(C(F)(F)F)CCN([C@H](C5CC5)C(F)(F)F)CC4)C(=O)O)cccc23)c(C(F)(F)F)c2ccccc21 [Compound 485] | > 1 | > 1
18 | Cn1c(=O)c(-c2cccc3c(C[C@H](NC(=O)C4(C(F)(F)F)CCN(C5(C(F)(F)F)CC5)CC4)C(=O)O)cccc23)c(C(F)(F)F)c2ccccc21 [Compound 486] | > 1 | > 1
19 | Cn1c(=O)c(-c2cccc3c(C[C@H](NC(=O)c4c(F)cccc4CN4CCC(C)(C)C4)C(=O)O)cccc23)c(C(F)(F)F)c2ccccc21 [Compound 487] | 0.01 to 0.1 | > 1
20 | Cn1c(=O)c(-c2cccc3c(C[C@H](NC(=O)C4(C(F)(F)F)CCN(C(C)(C)C(F)(F)F)CC4)C(=O)O)cccc23)c(C(F)(F)F)c2ccccc21 [Compound 489] | 0.1 to 1 | > 1
21 | Cn1c(=O)c(-c2cccc3c(C[C@H](NC(=O)C4(C(F)(F)F)CCN(C(C(F)(F)F)C(F)(F)F)CC4)C(=O)O)cccc23)c(C(F)(F)F)c2ccccc21 [Compound 490] | > 1 | > 1
22 | Cn1c(=O)c(-c2cccc3c(C[C@H](NC(=O)C4(C(F)(F)F)CCN(C5(C(F)(F)F)COC5)CC4)C(=O)O)cccc23)c(C(F)(F)F)c2ccccc21 [Compound 491] | 0.1 to 1 | > 1
23 | Cn1c(=O)c(-c2cccc3c(C[C@H](NC(=O)C4(C(F)(F)F)CCNCC4)C(=O)O)cccc23)c(C(F)(F)F)c2ccccc21 [Compound 492] | 0.01 to 0.1 | > 1
24 | Cn1c(=O)c(-c2cccc3c(C[C@H](NC(=O)C4(C(F)(F)F)CCN(C5CC(F)(F)C5)CC4)C(=O)O)cccc23)c(C(F)(F)F)c2ccccc21 [Compound 493] | 0.01 to 0.1 | 0.1 to 1
25 | Cn1c(=O)c(-c2cccc3c(C[C@H](NC(=O)C4(C(F)(F)F)CCN([C@@H]5CCC(F)(F)C5)CC4)C(=O)O)cccc23)c(C(F)(F)F)c2ccccc21 [Compound 494] | 0.01 to 0.1 | 0.1 to 1
26 | CCCS(=O)(=O)Nc1ccc(F)c(C(=O)N[C@@H](Cc2cccc3c(-c4c(C(F)(F)F)c5ccccc5n(C)c4=O)cccc23)C(=O)O)c1F [Compound 496] | 0.01 to 0.1 | > 1
27 | O=C(O)[C@H](Cc1cccc2c(-c3nccc4ccccc34)cccc12)NC(=O)C1(C(F)(F)F)CCN(C2COC2)CC1 [Compound 497] | < 0.01 | > 1
28 | CCOCc1cc(OC)c(-c2cccc3c(C[C@H](NC(=O)C4(C(F)(F)F)CCN(C5COC5)CC4)C(=O)O)cccc23)c(OC)c1 [Compound 498] | < 0.01 | 0.1 to 1
29 | Cn1c(C(F)(F)F)cc(C(F)(F)F)c(-c2cccc3c(C[C@H](NC(=O)C4(C(F)(F)F)CCN(C5COC5)CC4)C(=O)O)cccc23)c1=O [Compound 499] | < 0.01 | 0.1 to 1
30 | O=C(N[C@@H](Cc1cccc2c(-c3cccc4cccnc34)cccc12)C(=O)O)c1c(F)cccc1F [Compound 500] | > 1 | > 1
